Experiments:
Assay type in all cases: in vivo
[1] = test system: barnyardgrass (Echinochloa crus-galli); assay: Test G Pre-Emergence Protocol; details: Echinochloa crus-galli, pre-emergence, 312 h, evaluated after 13 days; for pest or weed control at 15.625 g/ha: 15.625 g ai/ha, read-out: Barnyard grass damage rating (100=total damage to plant; 0=no damage to plant); for pest or weed control at 62.5 g/ha: 62.5 g ai/ha, 100=total damage to plant, 0=no damage to plant, read-out: plant damage rating, Barnyardgrass; for pest or weed control at 250 g/ha: 250 g ai/ha, read-out: Barnyardgrass damage rating (100=total damage to plant; 0=no damage to plant)
In short: (§1)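 Seeds were sown in standard soil and kept one day in a glasshouse (24/16° C day/night, 14 h light, 65% humidity), then sprayed with compound in acetone/water (50:50) containing 0.5% Tween 20 at 15.625, 62.5 or 250 g/ha. Damage was scored after 13 days (0 = none, 100 = total).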

corn (Zea mays) [2] = assay: Test G Pre-Emergence Protocol; details: Zea mays, pre-emergence, 312 h, evaluated after 13 days; for plant injury at 15.625 g/ha: 15.625 g ai/ha; for plant injury at 15.625 g/ha / plant injury at 250 g/ha: read-out: Corn damage rating (100=total damage to plant; 0=no damage to plant); for plant injury at 62.5 g/ha: 62.5 g ai/ha, 100=total damage to plant, 0=no damage to plant, read-out: plant damage rating, Corn; for plant injury at 250 g/ha: 250 g ai/ha
In short: as §1

[3] = test system: giant foxtail (Setaria faberi); assay: Test G Pre-Emergence Protocol; details: Setaria faberi, pre-emergence, 312 h, evaluated after 13 days; for pest or weed control at 15.625 g/ha: 15.625 g ai/ha; for pest or weed control at 15.625 g/ha / pest or weed control at 250 g/ha: read-out: Foxtail, Giant damage rating (100=total damage to plant; 0=no damage to plant); for pest or weed control at 62.5 g/ha: 62.5 g ai/ha, 100=total damage to plant, 0=no damage to plant, read-out: plant damage rating, Foxtail, Giant; for pest or weed control at 250 g/ha: 250 g ai/ha
In short: as §1

[4] = test system: ivy-leaved morning glory (Ipomoea hederacea); assay: Test G Pre-Emergence Protocol; details: Ipomoea, pre-emergence, 312 h, evaluated after 13 days; for pest or weed control at 15.625 g/ha: 15.625 g ai/ha, read-out: Morning-glory, Ivy-leaved damage rating (100=total damage to plant; 0=no damage to plant); for pest or weed control at 62.5 g/ha: 62.5 g ai/ha, 100=total damage to plant, 0=no damage to plant, read-out: plant damage rating, Morningglory, Ivy-leaved; for pest or weed control at 250 g/ha: 250 g ai/ha, read-out: Morningglory, Ivy-leaved damage rating (100=total damage to plant; 0=no damage to plant)
In short: as §1

[5] = test system: redroot pigweed (Amaranthus retroflexus); assay: Test G Pre-Emergence Protocol; details: Amaranthus retroflexus, pre-emergence, 312 h, evaluated after 13 days; for pest or weed control at 15.625 g/ha: 15.625 g ai/ha; for pest or weed control at 15.625 g/ha / pest or weed control at 250 g/ha: read-out: Pigweed, Redroot damage rating (100=total damage to plant; 0=no damage to plant); for pest or weed control at 62.5 g/ha: 62.5 g ai/ha, 100=total damage to plant, 0=no damage to plant, read-out: plant damage rating, Pigweed, Redroot; for pest or weed control at 250 g/ha: 250 g ai/ha
In short: as §1

[6] = test system: velvetleaf (Abutilon theophrasti); assay: Test G Pre-Emergence Protocol; details: Abutilon theophrasti, pre-emergence, 312 h, evaluated after 13 days; for pest or weed control at 15.625 g/ha: 15.625 g ai/ha; for pest or weed control at 15.625 g/ha / pest or weed control at 250 g/ha: read-out: Velvetleaf damage rating (100=total damage to plant; 0=no damage to plant); for pest or weed control at 62.5 g/ha: 62.5 g ai/ha, 100=total damage to plant, 0=no damage to plant, read-out: plant damage rating, Velvetleaf; for pest or weed control at 250 g/ha: 250 g ai/ha
In short: as §1

[7] = test system: barnyardgrass (Echinochloa crus-galli); assay: Test G Post-Emergence Protocol; details: Echinochloa crus-galli, post-emergence, 312 h; for pest or weed control at 15.625 g/ha: 15.625 g ai/ha, evaluated after 13 days (100=total damage to plant; 0=no damage to plant), read-out: Barnyardgrass damage rating; for pest or weed control at 62.5 g/ha: 62.5 g ai/ha, read-out: Barnyardgrass damage rating (100=total damage to plant; 0=no damage to plant); for pest or weed control at 62.5 g/ha / pest or weed control at 250 g/ha: evaluated after 13 days; for pest or weed control at 250 g/ha: 250 g ai/ha, read-out: damage to plant, Barnyardgrass (100=total damage to plant; 0=no damage to plant)
In short: (§2)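 Post-emergence herbicidal damage, scored visually 0–100 at 13 days. Application at 15.625, 62.5 or 250 g/ha onto 8-day-old plants grown under glasshouse control.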

corn (Zea mays) [8] = assay: Test G Post-Emergence Protocol; details: Zea mays, post-emergence, 312 h; for plant injury at 15.625 g/ha: 15.625 g ai/ha, evaluated after 13 days (100=total damage to plant; 0=no damage to plant), read-out: Corn damage rating; for plant injury at 62.5 g/ha: 62.5 g ai/ha, read-out: Corn damage rating (100=total damage to plant; 0=no damage to plant); for plant injury at 62.5 g/ha / plant injury at 250 g/ha: evaluated after 13 days; for plant injury at 250 g/ha: 250 g ai/ha, read-out: damage to plant, Corn (100=total damage to plant; 0=no damage to plant)
In short: as §2

[9] = test system: giant foxtail (Setaria faberi); assay: Test G Post-Emergence Protocol; details: Setaria faberi, post-emergence, 312 h; for pest or weed control at 15.625 g/ha: 15.625 g ai/ha, evaluated after 13 days (100=total damage to plant; 0=no damage to plant), read-out: Foxtail, Giant damage rating; for pest or weed control at 62.5 g/ha: 62.5 g ai/ha, read-out: Foxtail, Giant damage rating (100=total damage to plant; 0=no damage to plant); for pest or weed control at 62.5 g/ha / pest or weed control at 250 g/ha: evaluated after 13 days; for pest or weed control at 250 g/ha: 250 g ai/ha, read-out: damage to plant, Foxtail, Giant (100=total damage to plant; 0=no damage to plant)
In short: as §2

[10] = test system: ivy-leaved morning glory (Ipomoea hederacea); assay: Test G Post-Emergence Protocol; details: Ipomoea, post-emergence, 312 h; for pest or weed control at 15.625 g/ha: 15.625 g ai/ha, evaluated after 13 days (100=total damage to plant; 0=no damage to plant), read-out: Morningglory, Ivy-leaved damage rating; for pest or weed control at 62.5 g/ha: 62.5 g ai/ha, read-out: Morningglory, Ivy-leaved damage rating (100=total damage to plant; 0=no damage to plant); for pest or weed control at 62.5 g/ha / pest or weed control at 250 g/ha: evaluated after 13 days; for pest or weed control at 250 g/ha: 250 g ai/ha, read-out: damage to plant, Morningglory, Ivy-leaved (100=total damage to plant; 0=no damage to plant)
In short: as §2

[11] = test system: redroot pigweed (Amaranthus retroflexus); assay: Test G Post-Emergence Protocol; details: Amaranthus retroflexus, post-emergence, 312 h; for pest or weed control at 15.625 g/ha: 15.625 g ai/ha, evaluated after 13 days (100=total damage to plant; 0=no damage to plant), read-out: Pigweed, Redroot damage rating; for pest or weed control at 62.5 g/ha: 62.5 g ai/ha, read-out: Pigweed, Redroot damage rating (100=total damage to plant; 0=no damage to plant); for pest or weed control at 62.5 g/ha / pest or weed control at 250 g/ha: evaluated after 13 days; for pest or weed control at 250 g/ha: 250 g ai/ha, read-out: damage to plant, Pigweed, Redroot (100=total damage to plant; 0=no damage to plant)
In short: as §2

[12] = test system: velvetleaf (Abutilon theophrasti); assay: Test G Post-Emergence Protocol; details: Abutilon theophrasti, post-emergence, 312 h; for pest or weed control at 15.625 g/ha: 15.625 g ai/ha, evaluated after 13 days (100=total damage to plant; 0=no damage to plant), read-out: Velvetleaf damage rating; for pest or weed control at 62.5 g/ha: 62.5 g ai/ha, read-out: Velvetleaf damage rating (100=total damage to plant; 0=no damage to plant); for pest or weed control at 62.5 g/ha / pest or weed control at 250 g/ha: evaluated after 13 days; for pest or weed control at 250 g/ha: 250 g ai/ha, read-out: damage to plant, Velvetleaf (100=total damage to plant; 0=no damage to plant)
In short: as §2

SMILES	pest or weed control at 15.625 g/ha [1]	pest or weed control at 62.5 g/ha [1]	pest or weed control at 250 g/ha [1]	plant injury at 15.625 g/ha (corn (Zea mays) [2])	plant injury at 62.5 g/ha (corn (Zea mays) [2])	plant injury at 250 g/ha (corn (Zea mays) [2])	pest or weed control at 15.625 g/ha [3]	pest or weed control at 62.5 g/ha [3]	pest or weed control at 250 g/ha [3]	pest or weed control at 15.625 g/ha [4]	pest or weed control at 62.5 g/ha [4]	pest or weed control at 250 g/ha [4]	pest or weed control at 15.625 g/ha [5]	pest or weed control at 62.5 g/ha [5]	pest or weed control at 250 g/ha [5]	pest or weed control at 15.625 g/ha [6]	pest or weed control at 62.5 g/ha [6]	pest or weed control at 250 g/ha [6]	pest or weed control at 15.625 g/ha [7]	pest or weed control at 62.5 g/ha [7]	also measured
CN1C[C@H](c2ccc3c(c2)OCCO3)[C@@H](C(=O)Nc2cccc(F)c2F)C1=O (racemic) [Compound 1490]	0%	50%	80%	0%	0%	10%	0%	40%	90%	0%	0%	0%	0%	0%	0%	0%	0%	0%	50%	60%	pest or weed control at 250 g/ha [7]: 60%; plant injury at 15.625 g/ha (corn (Zea mays) [8]): 0%; plant injury at 62.5 g/ha (corn (Zea mays) [8]): 30%; plant injury at 250 g/ha (corn (Zea mays) [8]): 40%; pest or weed control at 15.625 g/ha [9]: 50%; pest or weed control at 62.5 g/ha [9]: 60%; pest or weed control at 250 g/ha [9]: 60%; pest or weed control at 15.625 g/ha [10]: 0%; pest or weed control at 62.5 g/ha [10]: 0%; pest or weed control at 250 g/ha [10]: 30%; pest or weed control at 15.625 g/ha [11]: 0%; pest or weed control at 62.5 g/ha [11]: 0%; pest or weed control at 250 g/ha [11]: 0%; pest or weed control at 15.625 g/ha [12]: 0%; pest or weed control at 62.5 g/ha [12]: 0%; pest or weed control at 250 g/ha [12]: 20%
Cc1nc(F)ccc1[C@@H]1CN(C)C(=O)[C@H]1C(=O)Nc1cccc(F)c1F (racemic) [Compound 1492]	0%	20%	80%	0%	0%	0%	0%	20%	80%	0%	0%	0%	0%	0%	0%	0%	0%	0%	0%	30%	pest or weed control at 250 g/ha [7]: 60%; plant injury at 15.625 g/ha (corn (Zea mays) [8]): 0%; plant injury at 62.5 g/ha (corn (Zea mays) [8]): 0%; plant injury at 250 g/ha (corn (Zea mays) [8]): 0%; pest or weed control at 15.625 g/ha [9]: 0%; pest or weed control at 62.5 g/ha [9]: 40%; pest or weed control at 250 g/ha [9]: 60%; pest or weed control at 15.625 g/ha [10]: 0%; pest or weed control at 62.5 g/ha [10]: 0%; pest or weed control at 250 g/ha [10]: 0%; pest or weed control at 15.625 g/ha [11]: 0%; pest or weed control at 62.5 g/ha [11]: 0%; pest or weed control at 250 g/ha [11]: 0%; pest or weed control at 15.625 g/ha [12]: 0%; pest or weed control at 62.5 g/ha [12]: 0%; pest or weed control at 250 g/ha [12]: 20%
Cc1cc([C@@H]2CN(C)C(=O)[C@H]2C(=O)Nc2cccc(F)c2F)cnc1Cl (racemic) [Compound 1493]	40%	90%	90%	0%	0%	70%	60%	80%	90%	0%	0%	10%	0%	0%	0%	0%	0%	0%	40%	70%	pest or weed control at 250 g/ha [7]: 80%; plant injury at 15.625 g/ha (corn (Zea mays) [8]): 10%; plant injury at 62.5 g/ha (corn (Zea mays) [8]): 40%; plant injury at 250 g/ha (corn (Zea mays) [8]): 80%; pest or weed control at 15.625 g/ha [9]: 40%; pest or weed control at 62.5 g/ha [9]: 60%; pest or weed control at 250 g/ha [9]: 60%; pest or weed control at 15.625 g/ha [10]: 0%; pest or weed control at 62.5 g/ha [10]: 0%; pest or weed control at 250 g/ha [10]: 0%; pest or weed control at 15.625 g/ha [11]: 0%; pest or weed control at 62.5 g/ha [11]: 0%; pest or weed control at 250 g/ha [11]: 0%; pest or weed control at 15.625 g/ha [12]: 0%; pest or weed control at 62.5 g/ha [12]: 0%; pest or weed control at 250 g/ha [12]: 0%
